In BindingDB's records for PubMed 32698113 (Sichuan University, 2020):

Assay: Inhibition of human neutrophil elastase activity assessed as reduction in […]

Q: Which IC50 does the source give for `COc1cc2c(c3c1CCC(c1ccccc1)O3)C1C3C(c4ccc(O)c(C)c4OC)C(C(O)(OC)c4ccccc4)C14C(C=CC(=O)C4OC)OC3(c1ccccc1)O2` (stereo unspecified) here?
A: The IC50 was greater than 10 µM.
